Data taken from article PMC11596366, “Silybin Derivatives Produced by γ-Irradiation and Their Tyrosinase Inhibitory Activities” (Molecules, 2024).

Experiments:
Mushroom tyrosinase = Mushroom tyrosinase (Agaricus bisporus, UniProt C7FF04); assay: Mushroom tyrosinase inhibitory activity (L-tyrosine substrate, OD 475 nm); format: biochemical
Method: Mushroom tyrosinase (Sigma-Aldrich Co., St. Louis, MO, USA) was used for in vitro assays with slight modifications from a previously described method. […] After 5 min incubation at room temperature, 0.1 mL L-tyrosine (2 mM) was added and incubated for additional 20 min.

tyrosinase = tested on: tyrosinase; set-up: method as in PMID 30871862; details: against both monophenolase and diphenolase; cited from earlier work

Mushroom tyrosinase, sequence (C7FF04 2-392): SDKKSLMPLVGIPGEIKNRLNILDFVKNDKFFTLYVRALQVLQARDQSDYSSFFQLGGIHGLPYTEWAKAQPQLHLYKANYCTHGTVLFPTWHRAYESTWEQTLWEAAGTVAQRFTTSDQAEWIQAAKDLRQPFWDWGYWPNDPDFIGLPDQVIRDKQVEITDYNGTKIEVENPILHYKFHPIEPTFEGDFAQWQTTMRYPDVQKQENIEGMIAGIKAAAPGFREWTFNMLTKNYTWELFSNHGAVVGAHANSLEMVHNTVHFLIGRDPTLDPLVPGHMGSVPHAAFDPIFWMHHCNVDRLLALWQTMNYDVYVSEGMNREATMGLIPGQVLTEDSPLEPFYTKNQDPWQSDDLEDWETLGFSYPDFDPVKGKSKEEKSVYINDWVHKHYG
Mushroom tyrosinase, sequence (G1K3P4 entry or part of it, further chain): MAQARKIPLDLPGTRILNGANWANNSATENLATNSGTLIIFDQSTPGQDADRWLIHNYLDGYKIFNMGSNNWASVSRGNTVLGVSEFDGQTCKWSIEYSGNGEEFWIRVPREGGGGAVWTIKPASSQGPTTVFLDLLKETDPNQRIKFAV

SMILES: OC[C@H]1O[C@@H](Oc2ccc(O)cc2)[C@H](O)[C@@H](O)[C@@H]1O [Arbutin, reference compound]
- inhibition at 2300 µg/mL (Mushroom tyrosinase; concentration 2300 μg/mL, positive control): 50 ± 2.1%

SMILES: COc1cc(C2Oc3cc([C@H]4Oc5cc(O)cc(O)c5C(=O)[C@@H]4O)ccc3OC2CO)ccc1O (stereo partly drawn) [Compound 0]
- IC50 (Mushroom tyrosinase; non-irradiated and irradiated silybin samples, arbutin positive control, L-tyrosine 2 mM, pH 6.5): >200 µg/mL
- Inhibition of Tyrosinase (%) (Mushroom tyrosinase; sample concentration 50 μg/mL, L-tyrosine 2 mM, pH 6.5): 5.2 ± 0.2%
- Inhibition of Tyrosinase (%) (Mushroom tyrosinase; sample concentration 100 μg/mL, L-tyrosine 2 mM, pH 6.5): 11.4 ± 0.5%
- Inhibition of Tyrosinase (%) (Mushroom tyrosinase; sample concentration 200 μg/mL, L-tyrosine 2 mM, pH 6.5): 26.5 ± 0.8%

SMILES: COc1cc(C2Oc3cc([C@H]4Oc5cc(O)cc(O)c5C(=O)[C@@H]4O)ccc3OC2CO)ccc1O (stereo partly drawn) [silybin (1), silybin]
- type of tyrosinase inhibition (tyrosinase): mixed type I (KI < KIS) inhibition
